Assays:
toxicity tests on mice = format: in vivo; conditions: mouse, in vivo, ip, intraperitoneal administration, calculated from LD0 and LD100
Method: (§1) 5, 10 or 20% of active agent were suspended in 0.1% agar gel, and the obtained homogeneous suspensions were injected intraperitoneally into mice, or were administered into the stomach of the animals via a stomach tube. The animals were kept under observation for one week after a single treatment, and the toxicity data were evaluated on the basis of the percentage deaths observed in this period.

mice = assay: toxicity tests on mice; format: in vivo; conditions: single treatment, one week observation
Method: as §1

[1] = oral administration (stomach tube)

| SMILES | LD50 at 168 h (toxicity tests on mice) [mg/kg] | LD0 (mice; intraperitoneal administration) [mg/kg] | LD100 (mice; intraperitoneal administration) [mg/kg] | LD0 (mice; [1]) [mg/kg] | LD100 (mice; [1]) [mg/kg] |
| --- | --- | --- | --- | --- | --- |
| CCOC(=O)C(C#N)N=Nc1cccc(Cl)c1 (centres unmarked) [C2 H5 -- H Cl H] | 400 | 200 | 600 | 6000 | 6000 |
| CCOC(=O)C(C#N)N=Nc1ccc(Cl)cc1 (centres unmarked) [C2 H5 -- H H Cl] | 400 | 200 | 600 | 6000 | 6000 |
| CC(C)OC(=O)C(C#N)N=Nc1cccc(Cl)c1 (centres unmarked) [i-C3 H7 -- H Cl H] | 500 | 300 | 800 | 6000 | 6000 |
| CC(C)OC(=O)C(C#N)N=Nc1ccc(Cl)cc1 (centres unmarked) [i-C3 H7 -- H H Cl] | 600 | 400 | 1000 | 6000 | 6000 |
| CCCOC(=O)C(C#N)N=Nc1cccc(Cl)c1 (centres unmarked) [n-C3 H7 -- H Cl H] | 500 | 300 | 800 | 6000 | 6000 |
| CCCOC(=O)C(C#N)N=Nc1ccc(Cl)cc1 (centres unmarked) [n-C3 H7 -- H H Cl] | 600 | 400 | 1000 | 6000 | 6000 |
| CCCCOC(=O)C(C#N)N=Nc1cccc(Cl)c1 (centres unmarked) [n-C4 H9 -- H Cl H] | 800 | 500 | 1000 | 6000 | 6000 |
| CCCCOC(=O)C(C#N)N=Nc1ccc(Cl)cc1 (centres unmarked) [n-C4 H9 -- H H Cl] | 800 | 500 | 1000 | 6000 | 6000 |
| CCCCOC(=O)C(C#N)N=Nc1ccc([N+](=O)[O-])cc1 (centres unmarked) [n-C4 H9 -- H H NO2 --] | 600 | 400 | 800 | 6000 | 6000 |
| CCCCOC(=O)C(C#N)N=Nc1cccc([N+](=O)[O-])c1 (centres unmarked) [n-C4 H9 -- H NO2 -- H] | 600 | 400 | 800 | 6000 | 6000 |
